The test system of test [1] is MOLP-8 human multiple myeloma cell line. Put plainly: MOLP8 Caspase-Glo 3/7 luminescent assay. The class given is cell-based. Conditions: Homo sapiens, MOLP-8, 2 h, averaged over all runs on all batches. An excerpt: MCL-1 is a regulator of apoptosis and is highly over-expressed in tumor cells that escape cell death. The assay evaluates the cellular potency of small-molecule compounds targeting regulators of the apoptosis pathway, primarily MCL-1, Bfl-1, Bcl-2, and other proteins of the Bcl-2 family. Protein-protein inhibitors disrupting the interaction of anti-apoptotic regulators with BH3-domain proteins initiate apoptosis.
The Caspase-Glo® 3/7 Assay is a luminescent assay that measures caspase-3 and -7 activities in purified enzyme preparations or cultures of adherent or suspension cells. The assay provides a proluminescent caspase-3/7 substrate, which contains the tetrapeptide sequence DEVD. This substrate is cleaved to release aminoluciferin, a substrate of luciferase used in the production of light. Addition of the single Caspase-Glo® 3/7 Reagent in an “add-mix-measure” format results in cell lysis, followed by caspase cleavage of the substrate and generation of a “glow-type” luminescent signal.
This assay uses the MOLP-8 human multiple myeloma cell line, which is sensitive to MCL-1 inhibition.
Cell cultures were maintained between 0.2 and 2.0×10^6 cells/mL. The cells were harvested by collection in 50 mL conical tubes. The cells were then pelleted at 500 g for 5 mins before removing supernatant and resuspension in fresh pre-warmed culture medium. The cells were counted and diluted as needed.
The assay reagent was prepared by transferring the buffer solution to the substrate vial and mixing. The solution may be stored for up to 1 week at 4° C. with negligible loss of signal.
Compounds were delivered in assay-ready plates (Proxiplate) and stored at −20° C.
Assays always include 1 reference compound plate containing reference compounds. The plates were spotted with 40 nL of compounds (0.5% DMSO final in cells; serial dilution; 30 μM highest conc. 1/3 dilution, 10 doses, duplicates). The compounds were used at room temperature and 4 μL of pre-warmed media was added to all wells except column 2 and 23. The negative control was prepared by adding 1% DMSO in media. The positive control was prepared by adding the appropriate positive control compound in final concentration of 60 μM in media. The plate was prepared by adding 4 μL negative control to column 23, 4 μL positive control to column 2 and 4 μL cell suspension to all wells in the plate. The plate with cells was then incubated at 37° C. for 2 hours. The assay signal reagent is the Caspase-Glo solution described above, and 8 μL was added to all wells. The plates were then sealed and measured after 30 minutes.
The activity of a test compound was calculated as percent change in apoptosis induction as follows: […]

Test [2] deals with Myeloid Cell Leukemia 1 (Mcl-1) (Homo sapiens, UniProt Q07820). In words: biochemical. To be noted: HTRF Ki (nM). It is filed as binding. A general note: Time-resolved FRET reads energy transfer from a long-lived donor to a nearby acceptor.
Sequence of Myeloid Cell Leukemia 1 (Mcl-1) (Q07820 whole entry): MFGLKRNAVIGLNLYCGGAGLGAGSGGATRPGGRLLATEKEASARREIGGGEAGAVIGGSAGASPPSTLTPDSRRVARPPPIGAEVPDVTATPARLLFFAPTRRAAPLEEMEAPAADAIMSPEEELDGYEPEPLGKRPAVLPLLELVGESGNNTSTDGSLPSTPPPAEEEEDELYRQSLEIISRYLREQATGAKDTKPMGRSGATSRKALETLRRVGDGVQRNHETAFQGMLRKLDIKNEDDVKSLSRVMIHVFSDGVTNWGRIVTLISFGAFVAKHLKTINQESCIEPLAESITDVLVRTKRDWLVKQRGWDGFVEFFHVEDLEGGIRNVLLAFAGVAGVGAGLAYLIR
A further test concerns MOLP8 cell line. In words: MOLP8 CellEvent Caspase-3/7 Green live-cell IncuCyte apoptosis assay. It is filed as cell-based, human. Conditions: Homo sapiens, averaged values.
[3] abbreviates: read-out: MOLP8 Caspase-Glo AC50 (nM), MOLP8 cells, 2 hours incubation.
[4] abbreviates: MOLP-8, 6 h, read-out: MOLP8 Caspase 3/7 AC50 at 6 h (μM), MOLP8 cells, 6 h.
Where [5] appears, read: MOLP-8, 12 h, read-out: MOLP8 Caspase 3/7 AC50 at 12 h (μM), MOLP8 cells, 12 h.
[6] abbreviates: MOLP-8, 22 h, read-out: MOLP8 Caspase 3/7 AC50 at 22 h (μM), MOLP8 cells, 22 h.

Values joined by “and” are separate entries in the source; they are usually repeats but may differ in a detail not shown here. Equal entries are not always repeated. Where two headings read alike, the source gives them in different places.

As for `Cc1c2c(nn1C)CSCc1cc(n[nH]1)CSc1cc(c3ccccc3c1)OCCCc1c(C(=O)O)n(C)c3c-2c(Cl)ccc13` [Compound 3], the AC50 is 284 nM in test [1] (setting [3]), 0.6 µM in the test on MOLP8 cell line (setting [4]), 0.55 µM in the test on MOLP8 cell line (setting [5]) and 0.47 µM in the test with MOLP8 cell line (setting [6]). In addition, in test [2], the Ki (in general, the dissociation constant of the complex between target and ligand, obtained from inhibition or displacement) is 0.08 nM and 0.11 nM.

With `Cc1c2c(nn1C)CSCc1cc(nn1CCO)CSc1cc(c3ccccc3c1)OCCCc1c(C(=O)O)n(C)c3c-2c(Cl)ccc13` [Compound 6], the AC50 came to 414 nM in test [1] (setting [3]), 0.71 µM in the test with MOLP8 cell line (setting [4]), 0.63 µM in the test on MOLP8 cell line (setting [5]) and 0.48 µM in the test on MOLP8 cell line (setting [6]). In test [2], this compound had a Ki of 0.16 nM.

In the case of `COCCn1nc2cc1CSc1cc(c3ccccc3c1)OCCCc1c(C(=O)O)n(C)c3c(c(Cl)ccc13)-c1c(nn(C)c1C)CSC2` [Compound 10], the AC50 in test [1] (setting [3]) came to 49 nM; in the test on MOLP8 cell line (setting [4]) it was 0.2 µM; in the test with MOLP8 cell line (setting [5]), 0.22 µM; in the test on MOLP8 cell line (setting [6]), 0.21 µM. In addition, the affinity in test [2], expressed as Ki, was 0.11 nM.

For `Cc1c2c(nn1C)CSCc1cc(nn1CC1CCOCC1)CSc1cc(c3ccccc3c1)OCCCc1c(C(=O)O)n(C)c3c-2c(Cl)ccc13` [Compound 11], the AC50 was 385 nM in test [1] (MOLP8 cells, 2 hours incubation, read-out: MOLP8 Caspase-Glo AC50); 0.37 µM in the test with MOLP8 cell line (setting [4]); 0.43 µM with MOLP8 cell line (setting [5]); 0.41 µM in the test with MOLP8 cell line (setting [6]). In addition, the inhibition constant Ki in test [2] was 0.47 nM and 0.43 nM.

For the origin of these results see patent US20230021562A1, “[…] D[…]-1 INHIBITORS” (priority 2019, published 2023).
